Data as given in patent US20250213608A1, “VANADYL SULFATE COMPOSITIONS AND METHODS OF USE THEREFOR FOR THE TREATEMENT AND PREVENTION OF AGING-RELATED DISEASES AND CANCER” (The University of Chicago, priority 2022, published 2025).
“Also recorded” adds a separate entry of the source.

Assays:
[1] = tested on: human fibroblast BJ cells with therapy-induced senescence by doxorubicin; assay: Screen for senolytic effect in cells with therapy-induced senescence; format: cell-based; conditions: senescent BJ cells versus control uninduced cells; FIG. 1A, 2A
Experimental: (§1) Experiments were conducted during development of embodiments herein to screen for diet-derived dietary substances, natural products, blood chemicals, etc. that provide senolytic activity with reduced “off-target” toxic side effects. A library of diet-derived blood chemicals was screened to identify compounds that selectively induce cell death in human fibroblast BJ cells with therapy-induced senescence by doxorubicin (FIG. 1A). The top candidates identified were tested in a second screen (FIG. 1B) using human fibroblast HCA2 cells with senescence induced by Nutlin3a (p53 activator), RO3306 (CDK1 inhibitor), and BI2436 (PLK1 inhibitor).
(§2) Experiments were conducted during development of embodiments herein to screen for natural products that provide senolytic activity. A library of diet-derived blood chemicals was screened to identify compounds that selectively induce cell death in human fibroblast BJ cells with therapy-induced senescence by doxorubicin (FIG. 1A). The top candidates identified were tested in a second screen (FIG. 1B) using human fibroblast HCA2 cells with senescence induced by Nutlin3a (p53 activator), RO3306 (CDK1 inhibitor), and BI2436 (PLK1 inhibitor). […] Temporal mechanistic studies of VS were also conducted (FIG. 8A-B).

[2] = tested on: apolipoprotein E-deficient (ApoE-/-) mice; assay: Atherosclerosis model in ApoE-/- mice; format: in vivo
Text: Atherosclerosis-prone apolipoprotein E-deficient (ApoE^−/−) mice were used that display poor lipoprotein clearance with subsequent accumulation of cholesterol ester-enriched particles in the blood, which promote the development of atherosclerotic plaques. Compared to wild type control mice with no disease (WT-ND), the ApoE−/− mice developed atherosclerosis-like disease with accumulation of cholesterol that was stained with Sudan IV showing orange-red color (FIG. 9A, left).

[3] = tested on: CCl4-induced liver fibrosis; assay: CCl4-induced liver fibrosis; format: in vivo; conditions: FIG. 5A-D
[4] = tested on: human fibroblast HCA2 cells with senescence induced by Nutlin3a, RO3306 and BI2436; assay: Second screen for senolytic effect in induced-senescent HCA2 cells; format: cell-based; conditions: senescent HCA2 cells versus control uninduced cells; FIG. 1B, 2B
Experimental: as §1, §2

[5] = tested on: bleomycin-induced lung fibrosis; assay: Bleomycin-induced lung fibrosis; format: in vivo; conditions: FIG. 4A-D
A549 xenograft = A549 xenograft model combined with senescence induction; format: in vivo; conditions: FIG. 6A-B
senescent cells = assay: Rescue of VS-induced cell death by NAC; format: cell-based; conditions: FIG. 7A-C
Experimental: as §2

aged mice = assay: Aging-related phenotypes in aged mice after oral gavage; format: in vivo
Text: In some embodiments, provided herein is the administration of VS as a pharmaceutical or nutraceutical composition to treat or prevent pathogenic senescence-related diseases (e.g., liver and lung fibrosis, atherosclerosis, diabetes, osteoarthritis, etc.). In some embodiments, provided herein is the administration of VS as a pharmaceutical or nutraceutical composition to treat or prevent various diverse human cancers, alone or in combination with anti-cancer therapies that result in therapy-induced senescence.

animal models = conditions: cited from earlier work
type 2 diabetes = conditions: cited from earlier work
[6] = aged mice, oral gavage, kidney tissues

## O=S(=O)([O-])[O-].[O]=[V+2] [VS, vanadyl sulfate]
[1]
  cell death in senescent BJ cells: selectively triggers cell death; also recorded: selectively induced cell death
[2]; ApoE-/- mice, Sudan IV staining, quantitation, FIG. 9A
  accumulation of cholesterol in atherosclerotic plaques: reduced
[2]; ApoE-/- mice, FIG. 9B
  overall total cholesterol level: reduced
[2]; FIG. 9A-B
  therapeutic efficacy in atherosclerosis model: provides therapeutic efficacy
[3]
  therapeutic efficacy in CCl4-induced liver fibrosis: shows therapeutic efficacy
[4]
  cell death in senescent HCA2 cells: selectively triggers cell death; also recorded: selectively induced cell death
[5]
  therapeutic efficacy in bleomycin-induced lung fibrosis: shows therapeutic efficacy
A549 xenograft
  tumor growth: suppresses tumor growth
Senescent cells
  rescue of VS-induced cell death by NAC: can be rescued by NAC
Aged mice; FIG. 3A-F
  aging / senescent cells in vivo: ameliorates aging by eliminating senescent cells
Aged mice; aged mice, oral gavage
  aging-related phenotypes: improved
  serum urea levels: reducing
Aged mice; [6]
  gene expression level of CDK inhibitor p16INK4a: reducing
  gene expression level of inflammatory cytokine IL-6: reducing
Animal models
  hyperglycemia: reduce
  insulin resistance: reduce
Type 2 diabetes
  hepatic and muscle insulin sensitivity: improve
